ChEMBL document CHEMBL6096642 (Eur J Med Chem, 2025)
The source made the active and inactive calls. The calls are words filed in the database; no cut-off is given here.

Key:
[1] = biological target: T1, Tyrosine-protein phosphatase non-receptor type 1 (Homo sapiens) (UniProt P18031); assay: Inhibition of polyhis-tagged recombinant human PTP1B (1 to 303 residues) extracted from Escherichia coli BL21 (DE3) pLysS using p-nitro-phenyl phosphate as substrate at 10 uM preincubated for 15 mins followed by substrate addition and measured after 15 mins by absorbance based analysis relative to control; settings: time 30.0 min
T1 sequence (whole entry): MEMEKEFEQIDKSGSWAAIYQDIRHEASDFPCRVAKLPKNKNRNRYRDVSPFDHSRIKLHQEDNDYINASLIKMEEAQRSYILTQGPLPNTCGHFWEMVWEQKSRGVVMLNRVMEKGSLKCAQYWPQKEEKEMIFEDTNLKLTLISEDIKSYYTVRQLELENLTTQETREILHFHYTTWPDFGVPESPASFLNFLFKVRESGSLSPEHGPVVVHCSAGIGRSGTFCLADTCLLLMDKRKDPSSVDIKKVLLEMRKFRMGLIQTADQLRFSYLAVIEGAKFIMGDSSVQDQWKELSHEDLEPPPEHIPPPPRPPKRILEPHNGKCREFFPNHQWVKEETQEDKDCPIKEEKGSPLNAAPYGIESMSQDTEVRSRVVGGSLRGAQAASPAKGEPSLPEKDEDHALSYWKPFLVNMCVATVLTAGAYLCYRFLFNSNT

[2] = biological target: Aldo-keto reductase family 1 member B1 (Rattus norvegicus, UniProt P07943); assay: Inhibition of male Wistar rat lens ALR2 using D,L-glyceraldehyde as substrate assessed as NADPH consumption by spectrophotometric analysis
[3] = biological target: Aldo-keto reductase family 1 member B1 (Rattus norvegicus) (UniProt P07943); assay: Inhibition of male Wistar rat lens ALR2 using D,L-glyceraldehyde as substrate assessed as NADPH consumption at 1 uM by spectrophotometric analysis relative to control
[4] = biological target: Aldo-keto reductase family 1 member B1 (Rattus norvegicus) (UniProt P07943); assay: Inhibition of male Wistar rat lens ALR2 using D,L-glyceraldehyde as substrate assessed as NADPH consumption at 10 uM by spectrophotometric analysis relative to control
[5] = biological target: T1, Tyrosine-protein phosphatase non-receptor type 1 (Homo sapiens); assay: Inhibition of polyhis-tagged recombinant human PTP1B (1 to 303 residues) extracted from Escherichia coli BL21 (DE3) pLysS using p-nitro-phenyl phosphate as substrate at 50 uM preincubated for 15 mins followed by substrate addition and measured after 15 mins by absorbance based analysis relative to control; settings: time 30.0 min
[6] = biological target: T2, Aldo-keto reductase family 1 member A1 (Rattus norvegicus, UniProt P51635); assay: Inhibition of male Wistar rat kidney ALR1 using D-glucuronate as substrate assessed as NADPH consumption by spectrophotometric analysis
T2 sequence (P51635 whole entry): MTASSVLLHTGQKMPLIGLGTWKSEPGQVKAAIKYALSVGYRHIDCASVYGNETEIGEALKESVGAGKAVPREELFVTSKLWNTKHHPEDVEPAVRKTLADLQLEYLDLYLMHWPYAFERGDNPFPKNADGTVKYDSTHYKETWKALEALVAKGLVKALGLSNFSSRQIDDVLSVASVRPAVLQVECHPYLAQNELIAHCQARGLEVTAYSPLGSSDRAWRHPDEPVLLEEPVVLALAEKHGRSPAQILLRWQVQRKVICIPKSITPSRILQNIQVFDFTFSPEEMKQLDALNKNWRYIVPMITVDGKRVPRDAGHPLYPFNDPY

Rattus norvegicus [7] = species: Rattus norvegicus; assay: Selectivity index, ratio of IC50 for male Wistar rat kidney ALR1 using D-glucuronate as substrate to IC50 for male Wistar rat lens ALR2 using D,L-glyceraldehyde as substrate
[8] = biological target: T2, Aldo-keto reductase family 1 member A1; assay: Inhibition of rat kidney ALR1; type: tissue-based
C2C12 [9] = assay: Cytotoxicity against mouse C2C12 cells assessed as reduction in cell viability at 1 uM measured after 48 hrs by MTT assay; type: toxicity, cell-based; settings: c2c12, 48 h
C2C12 [10] = assay: Induction of mitochondrial uncoupling activity in mouse C2C12 cells assessed as decrease in coupling efficiency at 25 uM incubated for 30 mins by Seahorse XF cell mito stress analysis; type: functional, cell-based
C2C12 [11] = assay: Reduction in proton leak in mouse C2C12 cells assessed as decrease in coupling efficiency at 25 uM incubated for 24 hrs by Seahorse XF cell mito stress analysis; type: functional, cell-based
C2C12 [12] = assay: Effect on sparse capacity in mouse C2C12 cells assessed as decrease in coupling efficiency at 25 uM incubated for 24 hrs by Seahorse XF cell mito stress analysis; type: functional, cell-based
Mitochondrial membrane = assay: Induction of mitochondrial membrane potential loss in mouse C2C12 cells at 25 uM incubated for 0.5 to 50 hrs by TMRE probe based flow cytometric analysis; settings: time 0.5-50 hrs
C2C12 [13] = assay: Induction of Akt phosphorylation in mouse C2C12 cells at 25 uM incubated for 30 mins in presence of insulin by Western blot analysis; type: cell-based
C2C12 [14] = assay: Induction of glucose uptake in mouse C2C12 cells assessed as increase in 2-NDBG uptake at 25 to 50 uM incubated for 30 mins by flow cytometric analysis; type: functional, cell-based; settings: dose 25-50 µM
C2C12 [15] = assay: Reduction in maximal respiration rate in mouse C2C12 cells assessed as decrease in coupling efficiency at 25 uM incubated for 24 hrs by Seahorse XF cell mito stress analysis; type: functional, cell-based
[16] = biological target: T3, Tyrosine-protein phosphatase non-receptor type 2 (Homo sapiens, UniProt P17706); assay: Inhibition of polyHis-tagged recombinant human TCPTP (1 to 415 residues) extracted from Escherichia coli BL21 (DE3) pLysS using p-nitro-phenyl phosphate as substrate assessed as substrate hydrolysis by measuring p-nitrophenolate release by absorbance based analysis
T3 sequence (P17706 whole entry): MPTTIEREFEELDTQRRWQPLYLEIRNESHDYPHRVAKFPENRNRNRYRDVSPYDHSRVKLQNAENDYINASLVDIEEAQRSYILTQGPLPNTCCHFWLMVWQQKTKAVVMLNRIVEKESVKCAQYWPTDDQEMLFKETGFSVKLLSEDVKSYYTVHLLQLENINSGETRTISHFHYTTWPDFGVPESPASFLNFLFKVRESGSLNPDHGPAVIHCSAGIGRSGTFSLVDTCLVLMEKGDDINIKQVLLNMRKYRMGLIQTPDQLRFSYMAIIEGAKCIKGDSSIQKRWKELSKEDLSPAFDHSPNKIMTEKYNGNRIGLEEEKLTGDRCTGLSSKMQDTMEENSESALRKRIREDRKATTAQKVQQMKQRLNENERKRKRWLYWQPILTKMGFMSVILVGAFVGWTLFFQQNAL

C2C12 [17] = assay: Induction of mitochondrial uncoupling activity in mouse C2C12 cells assessed as decrease in sparse capacity at 25 uM incubated for 30 mins by Seahorse XF cell mito stress analysis; type: functional, cell-based
C2C12 [18] = assay: Effect on maximal respiration rate in mouse C2C12 cells assessed as decrease in coupling efficiency at 25 uM incubated for 30 mins by Seahorse XF cell mito stress analysis; type: functional, cell-based
C2C12 [19] = assay: Reduction in basal respiration rate in mouse C2C12 cells assessed as decrease in coupling efficiency at 25 uM incubated for 24 hrs by Seahorse XF cell mito stress analysis; type: functional, cell-based
[20] = biological target: T1, Tyrosine-protein phosphatase non-receptor type 1 (Homo sapiens); assay: Irreversible inhibition of polyhis-tagged recombinant human PTP1B (1 to 303 residues) extracted from Escherichia coli BL21 (DE3) pLysS at 200 uM incubated for 1 hrs and measured after dilution
Homo sapiens = species: Homo sapiens; assay: Selectivity index, ratio of IC50 for polyHis-tagged recombinant human TCPTP (1 to 415 residues) extracted from Escherichia coli BL21 (DE3) pLysS using p-nitro-phenyl phosphate as substrate to IC50 for polyhis-tagged recombinant human PTP1B (1 to 303 residues) extracted from Escherichia coli BL21 (DE3) pLysS using p-nitro-phenyl phosphate as substrate
C2C12 [21] = assay: Induction of mitochondrial uncoupling activity in mouse C2C12 cells assessed as increase in proton leak at 25 uM incubated for 30 mins by Seahorse XF cell mito stress analysis; type: functional, cell-based
C2C12 [22] = assay: Induction of glucose uptake in mouse C2C12 cells assessed as decrease in glucose concentration in cell culture medium at 25 to 50 uM incubated for 24 hrs by BGSTAR glucometric analysis; type: functional, cell-based; settings: dose 25-50 µM
C2C12 [23] = assay: Enhancement of […] glucose uptake in mouse C2C12 cells assessed as increase in 2-NDBG uptake at 25 to 50 uM preincubated for 30 mins followed by insulin addition and measure after 30 mins by flow cytometric analysis; type: functional, cell-based; settings: dose 25-50 µM, time 60.0 min
C2C12 [24] = assay: Reduction in oxygen-dependent ATP production in mouse C2C12 cells assessed as decrease in coupling efficiency at 25 uM incubated for 24 hrs by Seahorse XF cell mito stress analysis; type: functional, cell-based
[25] = biological target: T4, Tyrosine-protein phosphatase non-receptor type 1 (Homo sapiens, UniProt P18031); assay: Inhibition of polyhis-tagged recombinant human PTP1B (1 to 303 residues) extracted from Escherichia coli BL21 (DE3) pLysS using p-nitro-phenyl phosphate as substrate assessed as substrate hydrolysis by measuring p-nitrophenolate release by absorbance based analysis
T4 sequence (P18031 whole entry): T1 sequence (whole entry)

C2C12 [26] = assay: Reduction of mitochondrial mass in mouse C2C12 cells at 25 uM incubated for 72 hrs by Mitotracker green based flow cytometric analysis; type: functional, cell-based
C2C12 [27] = assay: Induction of mitochondrial uncoupling activity in mouse C2C12 cells assessed as decrease in oxygen-dependent ATP production at 25 uM incubated for 30 mins by Seahorse XF cell mito stress analysis; type: functional, cell-based
C2C12 [28] = assay: Effect on mitochondrial mass in mouse C2C12 cells at 25 uM incubated for 72 hrs by Mitotracker green based flow cytometric analysis; type: functional, cell-based
C2C12 [29] = assay: Effect on couple efficiency in mouse C2C12 cells assessed as decrease in coupling efficiency at 25 uM incubated for 24 hrs by Seahorse XF cell mito stress analysis; type: functional, cell-based
C2C12 [30] = assay: Induction of Akt phosphorylation in mouse C2C12 cells at 25 uM incubated for 30 mins by Western blot analysis; type: cell-based
C2C12 [31] = assay: Effect on basal respiration rate in mouse C2C12 cells assessed as decrease in coupling efficiency at 25 uM incubated for 30 mins by Seahorse XF cell mito stress analysis; type: functional, cell-based
C2C12 [32] = assay: Effect on mitochondrial mass in mouse C2C12 cells at 25 to 50 uM incubated for 72 hrs by Mitotracker green based flow cytometric analysis; type: functional, cell-based; settings: dose 25-50 µM
[33] = Selectivity index, ratio of IC50 for TCPTP (unknown origin) extracted from Escherichia coli BL21 TB1 using p-nitro-phenyl phosphate as substrate to IC50 for human PTP1B extracted from Escherichia coli BL21 TB1 using p-nitro-phenyl phosphate as substrate
Rattus norvegicus [34] = species: Rattus norvegicus; assay: Selectivity index, ratio of IC50 for rat kidney ALR1 to IC50 for rat lens ALR2

## O=C(O)CN1C(=O)S/C(=C\c2cn(Cc3ccc(F)cc3)c3ccccc23)C1=O
[1]
  inhibition: 0%
[2]
  IC50: 0.018 µM
[3]
  inhibition: > 70%
[4]
  inhibition: > 92%
[5]
  inhibition: 90.8%
[6]
  IC50: 14.2 µM
Rattus norvegicus [7]
  Ratio IC50: 787

## CC(/C=C1\SC(=S)N(CC(=O)O)C1=O)=C\c1ccccc1
[8]
  IC50: 2.14 µM
[6]
  IC50: 2.37 µM

## O=C(O)CN1C(=O)S/C(=C\c2cn(Cc3ccc(Cl)cc3Cl)c3ccccc23)C1=O
[1]
  inhibition: 28.1%
C2C12 [9]
  Activity: Toxic
C2C12 [10]
  Activity: Active
[2]
  IC50: 0.289 µM
C2C12 [11]
  Activity: Active
C2C12 [12]
  Activity: inactive
Mitochondrial membrane
  Activity: Active; Compound Targets Mitochondria As An Uncoupling Agent
[3]
  inhibition: > 70%
C2C12 [13]
  Activity: Not active; Compound Acted Neither As An Insulin Mimetic Nor A Sensitizing Agent
C2C12 [14]
  Activity: Active
C2C12 [15]
  Activity: Active
[16]
  IC50: 37.8 µM
[4]
  inhibition: > 92%
C2C12 [17]
  Activity: Active
C2C12 [18]
  Activity: inactive
C2C12 [19]
  Activity: Active
[20]
  inhibition: Active
Homo sapiens
  Ratio IC50: 1.8
C2C12 [21]
  Activity: Active
C2C12 [22]
  Activity: Active
C2C12 [23]
  Activity: inactive
C2C12 [24]
  Activity: Active
[5]
  inhibition: 62.8%
[6]
  IC50: > 15 µM
[25]
  IC50: 21.3 µM
C2C12 [26]
  Activity: Active
C2C12 [27]
  Activity: Active
C2C12 [28]
  Activity: inactive
Rattus norvegicus [7]
  Ratio IC50: > 52
C2C12 [29]
  Activity: inactive
C2C12 [30]
  Activity: Not active; Compound Acted Neither As An Insulin Mimetic Nor A Sensitizing Agent
C2C12 [31]
  Activity: inactive

## CN(C)C(=N)NC(=N)N
C2C12 [32]
  Activity: inactive

## O=c1c(O)c(-c2ccc(O)cc2O)oc2cc(O)cc(O)c12
[1]
  inhibition: 34.5%
[33]
  Ratio IC50: 1.3
[5]
  inhibition: 95.2%

## O=C(O)CN1C(=O)S/C(=C\c2cn(Cc3ccc(Br)cc3F)c3ccccc23)C1=O
[1]
  inhibition: 0%
[2]
  IC50: 0.187 µM
[3]
  inhibition: > 70%
[4]
  inhibition: > 92%
[5]
  inhibition: 4.4%
[6]
  IC50: > 15 µM
[25]
  IC50: > 50 µM
Rattus norvegicus [7]
  Ratio IC50: > 80

## O=C(O)CN1C(=O)S/C(=C\c2cn(Cc3ccccc3)c3ccccc23)C1=O
[1]
  inhibition: 18.3%
[2]
  IC50: 0.026 µM
[3]
  inhibition: > 70%
[16]
  IC50: 47.1 µM
[4]
  inhibition: > 92%
[20]
  inhibition: Active
Homo sapiens
  Ratio IC50: 1.1
[5]
  inhibition: 49.6%
[6]
  IC50: 7.54 µM
[25]
  IC50: 42.8 µM
Rattus norvegicus [7]
  Ratio IC50: 290

## Cc1ccc(CN2C(=O)C(C(C#N)C(=O)O)c3cc(F)ccc32)cc1 (stereo not given)
Rattus norvegicus [34]
  Ratio IC50: 16
